Measurements taken from patent publication EP0486958A1, “Physostigmine derivatives” (MEDIOLANUM FARMACEUTICI s.r.l., priority 1990, dated 1992).
Several values for one entry are separate records, joined by “and”; a condition that tells them apart may be missing. Equal values may be shown once. Read-outs that look alike come from different tables or passages of the source.

How the values were obtained:
Suiss female rats = assay: Acute toxicity (LD₅₀); format: in vivo; conditions: for acute toxicity lower than the one of physostigmine: relative to physostigmine
Protocol: (§1) The LD₅₀ acute toxicity of the compounds obtained in Examples 2,3,4 and 6 has evaluated on Suiss female rats.
(§2) The compounds were administered per os and endovenously to different groups of animals in the form of tatrates dissolved in water. (The endovenous administration provides the highest bio-availability of the products). The results are shown in Table 3, together with the comparison ones obtained employing physostigmine.

[1] = molecular target: T1, Electric Eel acetylcholinesterase, type V.S. (Electrophorus electricus, UniProt O42275); assay: Acetylcholinesterase inhibiting activity, test in vitro (Ellman method); format: biochemical; conditions: 20 min incubation, 25°C, phosphate buffer pH 8
T1 construct: purchased Sigma Chemicals type V.S
Protocol: The acetylcholinesterase activity was determined by the method of Ellman et al. (Ellman, G.L. Courtney, K.D. Andres, V., Featherstone, R.M. A new and rapide colorimetric determination of acetylcholinesterase activity - Biochem. Pharm., 1961, 7, 88).
The Electric Eel acetylcholinesterase, type V.S. of Sigma Chemicals was employed.
To determine IC₅₀, the incubation medium consisted of: Ellman reagent (5,5'-Dithiobis-2-nitrobenzoic acid) 100 µl; enzymatic solution (5,5 units/ml) 35 µl; variable concentration inhibitor 50 µl; phosphate buffer (0.1 mol/l; pH 8) 3000 µl. After 20 min. incubation, 20 µl acetylcholine (0.075 mol/l) are added, and the spectrophotomer, with kinetic software and thermostated at 25°C, was read for 3-5 min. At this point the reaction is in the stationary state. The concentrations of the products apt to inhibit by 50% (IC₅₀) the enzyme activity were calculated.

Acute toxicity (LD₅₀) = format: in vivo, Suiss female rats; conditions: rat, tartrates dissolved in water
Protocol: as §1, §2

[2] = molecular target: T2, brain acetylcholinesterase (Rattus norvegicus, UniProt P37136); assay: Brain acetylcholinesterase activity after oral administration to rats (enzymatic dosage, Ellman method on isolated brains); format: in vivo, male CD/SD rats; conditions: 50 mg/kg by gastric probe as tartrates in water, vs control group, individual animals; for % Variation of acetylcholinesterase at time 10′: 10′ after treatment; for % Variation of acetylcholinesterase at time 60′: 60′ after treatment; for % Variation of acetylcholinesterase at time 120′: 120′ after treatment
T2 construct: from tissue; host or cells: brain of male CD/SD rats
T2 sequence (P37136 32-614): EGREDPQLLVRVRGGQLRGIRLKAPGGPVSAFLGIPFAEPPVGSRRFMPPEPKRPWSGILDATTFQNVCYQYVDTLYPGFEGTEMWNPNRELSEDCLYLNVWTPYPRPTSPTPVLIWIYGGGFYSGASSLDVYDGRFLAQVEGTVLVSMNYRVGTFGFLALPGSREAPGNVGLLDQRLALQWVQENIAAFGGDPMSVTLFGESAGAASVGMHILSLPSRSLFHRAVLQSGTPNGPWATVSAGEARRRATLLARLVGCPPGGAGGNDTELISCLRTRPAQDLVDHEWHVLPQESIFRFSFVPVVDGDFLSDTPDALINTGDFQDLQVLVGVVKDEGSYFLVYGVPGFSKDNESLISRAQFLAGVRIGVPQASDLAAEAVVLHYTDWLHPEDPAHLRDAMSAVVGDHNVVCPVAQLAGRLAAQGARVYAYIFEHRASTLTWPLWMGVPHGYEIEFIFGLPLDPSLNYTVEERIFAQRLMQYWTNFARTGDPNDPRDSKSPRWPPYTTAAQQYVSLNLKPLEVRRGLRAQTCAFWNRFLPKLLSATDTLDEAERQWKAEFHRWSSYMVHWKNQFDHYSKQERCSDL
Protocol: The effects of the compounds of Examples 2 and 3 on the brain acetylcholinesterase activity of male CD/SD rats evaluation were administered by gastric probe at the dose of 50 mg/kg in the form of tartrates dissolved in water. The rats were previously kept from eating for 18 hrs. One group of rats treated by or with physiological solution served as control. The rats were sacrificed by decapitation at various times after the treatment with the products under examination. On the isolated brains the acetylcholinesterase activity was determined by the Ellman et al. method employed in the "vitro" tests.
The percentage variation of the acetylcholinesterase activity in the brain of the rats treated by or with the brains of rats treated with physiological solution (control group) was calculated.

acetylcholinesterase = acetylcholinesterase (Homo sapiens, UniProt P22303); conditions: literature data; cited from earlier work
[3] = water, iv, endovenous, read-out: LD₅₀ endovenous
[4] = water, po, oral (per os), read-out: LD₅₀ oral

T1 sequence (O42275 24-633): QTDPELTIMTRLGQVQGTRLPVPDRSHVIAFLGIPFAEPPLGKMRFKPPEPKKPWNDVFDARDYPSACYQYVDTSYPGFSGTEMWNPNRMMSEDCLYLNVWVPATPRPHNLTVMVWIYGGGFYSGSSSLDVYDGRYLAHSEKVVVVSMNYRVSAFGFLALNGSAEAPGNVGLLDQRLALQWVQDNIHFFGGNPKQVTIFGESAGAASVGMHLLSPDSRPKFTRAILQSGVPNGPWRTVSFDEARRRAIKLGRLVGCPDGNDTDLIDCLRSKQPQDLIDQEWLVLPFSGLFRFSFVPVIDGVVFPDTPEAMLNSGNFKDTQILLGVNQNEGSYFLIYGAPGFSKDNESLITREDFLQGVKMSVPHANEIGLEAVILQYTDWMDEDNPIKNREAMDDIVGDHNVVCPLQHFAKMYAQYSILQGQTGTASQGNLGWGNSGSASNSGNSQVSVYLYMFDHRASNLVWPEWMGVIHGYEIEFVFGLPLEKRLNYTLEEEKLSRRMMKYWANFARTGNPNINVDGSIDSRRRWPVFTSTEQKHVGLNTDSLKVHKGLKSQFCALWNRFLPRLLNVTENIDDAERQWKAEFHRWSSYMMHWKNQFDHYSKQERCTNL
acetylcholinesterase, sequence (P22303 32-614): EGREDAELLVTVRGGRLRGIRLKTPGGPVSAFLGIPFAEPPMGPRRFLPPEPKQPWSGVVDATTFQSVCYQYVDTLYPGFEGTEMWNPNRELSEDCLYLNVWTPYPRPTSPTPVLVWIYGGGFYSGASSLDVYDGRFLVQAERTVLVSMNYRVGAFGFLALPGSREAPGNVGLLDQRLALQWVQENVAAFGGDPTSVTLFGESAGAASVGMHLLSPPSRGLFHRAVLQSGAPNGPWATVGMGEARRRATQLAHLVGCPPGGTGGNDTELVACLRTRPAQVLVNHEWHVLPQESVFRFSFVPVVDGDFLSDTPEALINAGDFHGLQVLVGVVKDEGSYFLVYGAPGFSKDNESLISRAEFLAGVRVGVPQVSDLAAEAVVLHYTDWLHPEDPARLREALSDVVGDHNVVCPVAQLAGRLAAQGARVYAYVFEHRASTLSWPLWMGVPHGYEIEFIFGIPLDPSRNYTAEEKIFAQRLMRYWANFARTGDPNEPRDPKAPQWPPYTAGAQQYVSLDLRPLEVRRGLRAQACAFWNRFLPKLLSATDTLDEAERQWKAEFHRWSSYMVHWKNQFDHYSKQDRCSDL

## CCCN(C)C(=O)Oc1ccc2c(c1)[C@]1(C)CCN(C)[C@@H]1N2C (relative stereo) [Example 2, 1,2,3,3a,8,8a-hexaydro-1,3a,8-trimethylpyrrol(2,3-b)indol-5-ol(3aS-cis)-N-methyl,N-propylcarbamate (ester)]
Suiss female rats; tartrates dissolved in water
  LD₅₀ endovenous: >50 mg/kg and <100 mg/kg
Suiss female rats; oral (per os), tartrates dissolved in water
  LD₅₀ oral: >100 mg/kg and <150 mg/kg
[1]
  IC50: 1100 nM

## CCCCCN(C)C(=O)Oc1ccc2c(c1)[C@]1(C)CCN(C)[C@@H]1N2C [Example 3, 1,2,3,3a,8,8a-hexahydro-1,3a,8-trimethylpyrrol(2,3-b)indol-5-ol(3aS-cis)-N-methyl,N-pentylcarbamate (ester)]
Acute toxicity (LD₅₀); [3]
  LD50: > 50 mg/kg
Acute toxicity (LD₅₀); [4]
  LD50: > 178 mg/kg
Suiss female rats; tartrates dissolved in water
  LD₅₀ endovenous: <100 mg/kg
Suiss female rats
  acute toxicity lower than the one of physostigmine: approximately 100 times
[2]
  % Variation of acetylcholinesterase at time 10′: -60,1% and -53,8%
  % Variation of acetylcholinesterase at time 60′: -69,6% and -70,9%
  % Variation of acetylcholinesterase at time 120′: -72,0% and -68,0%
[1]
  IC50: 1900 nM

## CN(Cc1ccccc1)C(=O)Oc1ccc2c(c1)[C@]1(C)CCN(C)[C@@H]1N2C [Example 6, 1,2,3,3a,8,8a-hexahydro-1,3a,8-trimethylpyrrol.(2,3-b)indol-5-ol (3aS-cis) N-methyl,N-benzyl carbamate (ester)]
Acute toxicity (LD₅₀); [3]
  LD50: < 50 mg/kg
Acute toxicity (LD₅₀); [4]
  LD50: ~70 mg/kg
[1]
  IC50: 1000 nM

## CCN(CC)C(=O)Oc1ccc2c(c1)C1(C)CCN(C)C1N2C (stereo not shown) [diethylphysostigmine]
acetylcholinesterase
  acetylcholinesterase inhibiting activity: low inhibiting activity

## CCCCCCCN(C)C(=O)Oc1ccc2c(c1)[C@]1(C)CCN(C)[C@@H]1N2C [Example 4, 1,2,3,3a,8,8a-hexahydro-1,3a,8-trimethylpyrrol(2,3-b)indol-5-ol (3aS-cis) N-methyl,N-heptylcarbamate (ester)]
Acute toxicity (LD₅₀); [3]
  LD50: > 50 mg/kg
Acute toxicity (LD₅₀); [4]
  LD50: > 200 mg/kg
Suiss female rats; tartrates dissolved in water
  LD₅₀ endovenous: <100 mg/kg
Suiss female rats
  acute toxicity lower than the one of physostigmine: approximately 100 times
[2]
  % Variation of acetylcholinesterase at time 10′: 0% and 5,7%
  % Variation of acetylcholinesterase at time 60′: -52,7% and -47,1%
  % Variation of acetylcholinesterase at time 120′: -54,5% and -56,5%
[1]
  IC50: 3500 nM

## CNC(=O)Oc1ccc2c(c1)[C@]1(C)CCN(C)[C@@H]1N2C [Physostigmine]
Acute toxicity (LD₅₀); female, Suiss, in vivo, intravenous, endovenous, read-out: LD₅₀ endovenous
  LD50: 0.58 mg/kg
Acute toxicity (LD₅₀); female, Suiss, in vivo, po, oral (per os), read-out: LD₅₀ oral
  LD50: 2.2 mg/kg
